From patent publication US20150202224A1, “METHOD OF TREATING IRON DEFICIENCY ANEMIA” (Luitpold Pharmaceuticals, Inc., priority 2012, published 2015)
Like-named read-outs stand apart in the source and are kept apart here.

Assays:
[1] = tested on: subjects with iron deficiency anemia (IDA); assay: Randomized trial of ferric carboxymaltose vs. oral iron in non-responders to the oral iron run-in: hemoglobin levels; type: in vivo, human; conditions: for Hemoglobin at baseline (Day 1), mean (SD): before randomized treatment, non-responders to oral iron run-in; for Hemoglobin change to Day 35, mean (SD) / Hemoglobin change to Day 35, median: change from baseline (Day 1) to Day 35; for percentage of subjects with a hemoglobin increase of ≧1 g/dL: non-responders to the oral iron run-in in whom hepcidin values were measured; for percentage of subjects with a hemoglobin increase of ≧1 g/dL / mean Hemoglobin increases / percentage of subjects with hemoglobin change ≧2 g/dL: after randomization; for mean Hemoglobin increases / percentage of subjects with hemoglobin change ≧2 g/dL: non-responders to the oral iron run-in
Protocol: The following example describes hepcidin measurements obtained during a randomized, multi-center, controlled trial comparing the efficacy and safety of ferric carboxymaltose in subjects with iron deficiency anemia (IDA) (see generally, Szczech 2011).
(§1) Ferric carboxymaltose (Group A) was administered at a dose of 15 mg/kg to a maximum 750 mg per dose administered intravenously on Day 0 and Day 7. Oral iron was given as ferrous sulfate 325 mg three times a day for an additional 14 days starting on Day 0.
Hemoglobin levels and markers of iron status were assessed up to 35 days and measures of safety and tolerability were assessed up to 120 days. Hemoglobin levels and markers of iron status were assessed at screening (Day […]), Day 1, and Day 35.
(§2) The following example describes the randomized study of ferric carboxymaltose (FCM) vs. oral iron therapy on non-responders. Baseline (Day 1) and post-treatment (Day 35) levels of hepcidin and hemoglobin were compared.

hepcidin = assay: Randomized trial of ferric carboxymaltose vs. oral iron in non-responders: serum hepcidin levels by C-ELISA; type: in vivo, human; conditions: for Hepcidin on Day 35, mean (SD) / Hepcidin on Day 35, median / Hepcidin at baseline (Day 1), mean (SD) / Hepcidin at baseline (Day 1), median: non-responders to oral iron run-in; for Hepcidin at baseline (Day 1), mean (SD): before randomized treatment; for Hepcidin change to Day 35, mean (SD) / Hepcidin change to Day 35, median: change from baseline (Day 1) to Day 35; for change in hepcidin from baseline (Day 1) to Day 35, in words: non-responders to the oral iron run-in
Protocol: as §1
Hepcidin levels were analyzed from serum samples obtained at screening (Day […]) in an initial Analysis Group (I) of 44 subjects, 22 responders, and 22 non-responders. A hepcidin value of ≧20 ng/mL was identified as a cutoff for further study in the determination of predictive values for non-responsiveness to 14 day oral iron run-in in 240 subjects (Analysis Group II).
Hepcidin levels were also assessed after the oral iron run-in (Day 1) and after treatment with intravenous (IV) iron or oral iron post-randomization (Day 35). Hepcidin levels were measured using a commercially available competitive enzyme-linked immunosorbent assay (C-ELISA). Samples were collected by the investigator at the site, stored by a contract research organization (Covance, Indianapolis, Ind.) and sent to a commercial laboratory (Intrinsic LifeSciences, La Jolla, Calif.) for analysis.
as §2

[2] = tested on: subjects with iron deficiency anemia (IDA); conditions: Analysis Group II, ferrous sulfate 325 mg three times daily for 14 days
Protocol: Eligibility for this trial included subjects≧18 years of age with hemoglobin≦11 g/dL and IDA of any etiology with ferritin≦100 ng/mL, or ≦300 ng/mL when transferrin saturation (TSAT) was ≦30%.
The following example describes the determination and comparison of hepcidin levels in 240 subjects with response to oral iron. Hepcidin and other iron indices were measured and compared. The objective of the study was to determine the baseline characteristics of the subject population and to compare levels of hepcidin, hemoglobin, and iron indices in responders and non-responders after a 14 day treatment of oral iron.

[3] = in vitro and in vivo; cited from earlier work
[4] = cited from earlier work
dextran antibodies = conditions: cited from earlier work
[5] = in vivo; cited from earlier work
dogs and rats = conditions: cumulative doses over 13 weeks, dose-related clinical signs of iron accumulation in liver, spleen, kidneys; cited from earlier work
rodents and dogs = conditions: single dose; cited from earlier work
rabbit = conditions: intra-arterial, perivenous or intravenous; cited from earlier work
[6] = listed as ferric carboxymaltose

Row | Substance | Hemoglobin on Day 35, mean (SD) [1] | Hemoglobin on Day 35, median [1] | Hemoglobin at baseline (Day 1), median [1] | Hemoglobin at baseline (Day 1), mean (SD) [1] | Hemoglobin change to Day 35, mean (SD) [1] | Hemoglobin change to Day 35, median [1] | percentage of subjects with a hemoglobin increase of ≧1 g/dL [1] | mean Hemoglobin increases [1] | percentage of subjects with hemoglobin change ≧2 g/dL [1] | Hepcidin on Day 35, mean (SD) (hepcidin) | Hepcidin on Day 35, median (hepcidin) | Hepcidin at baseline (Day 1), mean (SD) (hepcidin) | Hepcidin at baseline (Day 1), median (hepcidin) | Hepcidin change to Day 35, mean (SD) (hepcidin) | Hepcidin change to Day 35, median (hepcidin) | change in hepcidin from baseline (Day 1) to Day 35, in words (hepcidin) | other results
1 | ferrous sulfate [Oral iron] | 11.0 (1.3) g/dL | 10.9 g/dL | 10.7 g/dL | 10.4 (1.2) g/dL | 0.6 (0.9) g/dL | 0.5 g/dL | 20.8% | 0.6±0.9 gm/dL | 5.2% | 29.0 (53.894) ng/mL | 10.5 ng/mL | 32.0 (44.314) ng/mL | 19.6 ng/mL | −3.02 (41.793) ng/mL | -6.0 ng/mL | no significant change | Hemoglobin change to Day 35, mean (SD) ([1]; listed as oral iron): 0.6 g/dL; Hepcidin at baseline (Day 1), mean (SD) (hepcidin; listed as oral iron): 32.03 ng/mL; hemoglobin change after the 14 day oral iron run-in, non-responders ([2]; non-responders (Hb Δ <1 g/dL)): 0.2 ± 0.4 g/dL; hemoglobin change after the 14 day oral iron run-in, responders ([2]; responders (Hb Δ ≧1 g/dL)): 1.8 ± 0.6 g/dL
2 | polynuclear iron (III)-hydroxide 4(R)-(poly-(1→4)-O-α-glucopyranosyl)-oxy-2(R),3(S),5(R),6-tetrahydroxy-hexanoate [FCM] | 12.0 (1.4) g/dL | 12.2 g/dL | 10.4 g/dL | 10.3 (1.1) g/dL | 1.7 (1.3) g/dL | 1.7 g/dL | 65.3% | 1.7±1.3 gm/dL | 37.5% | 160.5 (181.543) ng/mL | 112.6 ng/mL | 39.2 (92.236) ng/mL | 2.5 ng/mL | 121.35 (115.977) ng/mL | 91.9 ng/mL | significant increase | Hemoglobin change to Day 35, mean (SD) [1, 6]: 1.7 g/dL; mutagenicity [3]: no evidence that FCM is clastogenic, mutagenic, or causes chromosomal damage or bone marrow cell toxicity; Hepcidin on Day 35, mean (SD) (hepcidin; [6]): 160.51 ng/mL; Hepcidin at baseline (Day 1), mean (SD) (hepcidin; [6]): 39.15 ng/mL; Hepcidin change to Day 35, mean (SD) (hepcidin; [6]): 121.35 ng/mL; injected amount still in the blood ([4]; eight hours after intravenous administration): 5 to 20%; projected calculated terminal half-life (t½) ([4]; intravenous): approximately 16 hours; reaction with dextran antibodies (dextran antibodies): does not react with dextran antibodies; specific responses in a dextran antigenicity test (dextran antibodies): no specific responses; acute toxicity relative to iron sucrose [5]: one-fifth that of iron sucrose; no observed adverse effect level, cumulative dose (dogs and rats): up to 117 mg iron/kg body weight; safe and tolerated intravenous dose as multiple of the equivalent of an intravenous infusion of 1,000 mg iron once weekly in humans (rodents and dogs): up to 60 times; treatment-related local tissue irritation (rabbit): No treatment-related local tissue irritation was observed
3 | iron sucrose |  |  |  |  |  |  |  |  |  |  |  |  |  |  |  |  | injected amount still in the blood ([4]; in vivo, iv): 2 to 13%; projected calculated terminal half-life (t½) ([4]; in vivo, iv): 6 h
